Each block holds one molecule with its values, some of them ahead of it.
How the values were obtained:
[1] = molecular target: human Werner helicase (WRN, amino acids 517-1235 with L1074F point mutation) (Homo sapiens (Human), UniProt Q14191, L1074F); test: WRN (BV08) ADP-Glo assay; assay type: biochemical; conditions: human WRN (aa 517-1235, L1074F), read-out: ADP-Glo_hWRN_IC50
Procedure, shortened: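 Untagged WRN 517-1235 (L1074F), Sf9/baculovirus-expressed, 0.15 nM, preincubated 15 min with compound, then 5 μM ATP and 0.1 nM annealed DNA duplex added; 60 min at 25 °C in Bicine pH 7.5, 1 mM MgCl2, 1% DMSO. ADP-Glo luminescence; % inhibition vs DMSO and 20 μM NSC-617145 controls, four-parameter IC50 fit.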

[2] = tested on: p21 induction in HCT 116 cells; test: p21 induction in cells (In-Cell Western, p21/GAPDH ratio); assay type: cell-based; conditions: Homo sapiens, 24 h compound incubation, read-out: p21_EC50
Procedure, shortened: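 HCT 116 cells treated 24 h at 37° C with 11-point, 2-fold dilutions typically from 10 μM, in duplicate. Fixed cells co-stained for p21 (800 nm) and GAPDH (700 nm) by In-Cell Western. p21/GAPDH ratio normalised between DMSO and reference WRN inhibitor controls, and EC50 obtained by nonlinear regression.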

Sequence of human Werner helicase (WRN, amino acids 517-1235 with L1074F point mutation) (Q14191 other isoform, or with tags, fused parts or gaps L1074F (already in the parent)): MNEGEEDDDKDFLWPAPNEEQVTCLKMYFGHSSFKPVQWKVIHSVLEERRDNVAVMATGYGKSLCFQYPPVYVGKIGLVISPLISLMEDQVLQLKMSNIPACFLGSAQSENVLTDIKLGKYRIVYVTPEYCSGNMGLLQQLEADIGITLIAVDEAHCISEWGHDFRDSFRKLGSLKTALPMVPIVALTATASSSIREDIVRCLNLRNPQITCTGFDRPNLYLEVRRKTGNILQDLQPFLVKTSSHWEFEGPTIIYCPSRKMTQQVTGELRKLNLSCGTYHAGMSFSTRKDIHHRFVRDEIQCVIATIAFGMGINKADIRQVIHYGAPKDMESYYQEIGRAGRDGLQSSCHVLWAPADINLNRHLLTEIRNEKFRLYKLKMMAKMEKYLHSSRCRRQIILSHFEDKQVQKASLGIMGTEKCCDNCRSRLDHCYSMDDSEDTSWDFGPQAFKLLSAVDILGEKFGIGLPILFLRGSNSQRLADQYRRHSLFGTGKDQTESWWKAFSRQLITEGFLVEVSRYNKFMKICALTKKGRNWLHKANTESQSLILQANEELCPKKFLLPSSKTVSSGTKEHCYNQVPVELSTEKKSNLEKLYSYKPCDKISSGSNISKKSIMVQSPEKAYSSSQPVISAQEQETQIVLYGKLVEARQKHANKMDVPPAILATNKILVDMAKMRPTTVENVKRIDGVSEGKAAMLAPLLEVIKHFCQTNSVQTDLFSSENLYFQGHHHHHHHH

Compound: CCc1c(N2CCN(C(=O)c3cccc4ncoc34)[C@H]3CC[C@@H]32)c(=O)c2nn(C3=CCOCC3)nc2n1CC(=O)NC12CC(C(C)C)(C1)C2 [Compound I-52, 2-{6-[(1S,6S)-5-(1,3-benzoxazole-7-carbonyl)-2,5-diazabicyclo[4.2.0]octan-2-yl]-2-(3,6-dihydro-2H-pyran-4-yl)-5-ethyl-7-oxo-2H,4H,7H-[1,2,3]triazolo[4,5-b]pyridin-4-yl}-N-[3-(propan-2-yl)bicyclo[1.1.1]pentan-1-yl]acetamide]
IC50 [1]: 5 to 50 nM
EC50 [2]: 500 to 2000 nM

Compound: CCc1c(N2CCN(C(=O)c3ncnc(C)c3O)CC2)c(=O)c2nn(-c3ccccn3)nc2n1CC(=O)NC12CC(C(C)C)(C1)C2 [Compound I-101, 2-{5-ethyl-6-[4-(5-hydroxy-6-methylpyrimidine-4-carbonyl)piperazin-1-yl]-7-oxo-2-(pyridin-2-yl)-2H,4H,7H-[1,2,3]triazolo[4,5-b]pyridin-4-yl}-N-[3-(propan-2-yl)bicyclo[1.1.1]pentan-1-yl]acetamide]
IC50 [1]: 5 to 50 nM
EC50 [2]: 500 to 2000 nM

Compound: CCc1c(N2CCN(C(=O)c3c(OC)ncc(COC)c3O)CC2)c(=O)c2nn(-c3ccnc(OC)c3)nc2n1CC(=O)NC12CC(C(C)C)(C1)C2 [Compound I-50, 2-(5-ethyl-6-{4-[4-hydroxy-2-methoxy-5-(methoxymethyl)pyridine-3-carbonyl]piperazin-1-yl}-2-(2-methoxypyridin-4-yl)-7-oxo-2H,4H,7H-[1,2,3]triazolo[4,5-b]pyridin-4-yl)-N-[3-(propan-2-yl)bicyclo[1.1.1]pentan-1-yl]acetamide]
IC50 [1]: 5 to 50 nM
EC50 [2]: 2000 to 5000 nM

Compound: CCc1c(N2CCN(C(=O)c3cccc4ncoc34)[C@H]3CC[C@@H]32)c(=O)c2nn(-c3ccnc(OC)c3)nc2n1CC(=O)NC12CC(C(C)C)(C1)C2 [Compound I-108, 2-{6-[(1S,6S)-5-(1,3-benzoxazole-7-carbonyl)-2,5-diazabicyclo[4.2.0]octan-2-yl]-5-ethyl-2-(2-methoxypyridin-4-yl)-7-oxo-2H,4H,7H-[1,2,3]triazolo[4,5-b]pyridin-4-yl}-N-[3-(propan-2-yl)bicyclo[1.1.1]pentan-1-yl]acetamide]
IC50 [1]: 5 to 50 nM
EC50 [2]: 500 to 2000 nM

Compound: CCc1c(N2CCN(C(=O)c3ncnc(C)c3O)[C@H]3CC[C@@H]32)c(=O)c2nn(C3=CCOCC3)nc2n1CC(=O)Nc1ccc(C(F)(F)F)cc1F [Compound I-12, 2-(2-(3,6-dihydro-2H-pyran-4-yl)-5-ethyl-6-((1S,6S)-5-(5-hydroxy-6-methylpyrimidine-4-carbonyl)-2,5-diazabicyclo[4.2.0]octan-2-yl)-7-oxo-2,7-dihydro-4H-[1,2,3]triazolo[4,5-b]pyridin-4-yl)-N-(2-fluoro-4-(trifluoromethyl)phenyl)acetamide]
IC50 [1]: ≤ 5 nM
EC50 [2]: ≤ 500 nM

Compound: CCc1c(N2CCN(C(=O)c3c(OC)ncc(C)c3O)CC2)c(=O)c2nn(-c3ccnc(OC)c3)nc2n1CC(=O)NC12CC(CC(F)(F)F)(C1)C2 [Compound I-131, 2-{5-ethyl-6-[4-(4-hydroxy-2-methoxy-5-methylpyridine-3-carbonyl)piperazin-1-yl]-2-(2-methoxypyridin-4-yl)-7-oxo-2H,4H,7H-[1,2,3]triazolo[4,5-b]pyridin-4-yl}-N-[3-(2,2,2-trifluoroethyl)bicyclo[1.1.1]pentan-1-yl]acetamide]
IC50 [1]: 5 to 50 nM
EC50 [2]: 500 to 2000 nM

Compound: CCc1c(N2CCN(C(=O)c3c(OC)ncc(C)c3O)[C@H]3CC[C@@H]32)c(=O)c2nn(-c3ccnc(OC)c3)nc2n1CC(=O)NC12CC(C(C)C)(C1)C2 [Compound I-116, 2-{5-ethyl-6-[(1S,6S)-5-(4-hydroxy-2-methoxy-5-methylpyridine-3-carbonyl)-2,5-diazabicyclo[4.2.0]octan-2-yl]-2-(2-methoxypyridin-4-yl)-7-oxo-2H,4H,7H-[1,2,3]triazolo[4,5-b]pyridin-4-yl}-N-[3-(propan-2-yl)bicyclo[1.1.1]pentan-1-yl]acetamide]
IC50 [1]: 5 to 50 nM
EC50 [2]: ≤ 500 nM

Compound: CCc1c(N2CCN(C(=O)c3ncnc(C)c3O)[C@H]3CC[C@@H]32)c(=O)c2nn(-c3ccnc(OC)c3)nc2n1CC(=O)NC1CC2(CC(F)C2)C1 (stereo partly drawn) [Compound I-47, 2-{5-ethyl-6-[(1S,6S)-5-(5-hydroxy-6-methylpyrimidine-4-carbonyl)-2,5-diazabicyclo[4.2.0]octan-2-yl]-2-(2-methoxypyridin-4-yl)-7-oxo-2H,4H,7H-[1,2,3]triazolo[4,5-b]pyridin-4-yl}-N-{6-fluorospiro[3.3]heptan-2-yl}acetamide]
IC50 [1]: 5 to 50 nM
EC50 [2]: 500 to 2000 nM

Compound: CCc1c(N2CCN(C(=O)c3ncnc(C)c3O)[C@H]3CC[C@@H]32)c(=O)c2nn(-c3ccnc(OC)c3)nc2n1CC(=O)NC1CC2(CCC2)C1 [Compound I-21, 2-(5-ethyl-6-((1S,6S)-5-(5-hydroxy-6-methylpyrimidine-4-carbonyl)-2,5-diazabicyclo[4.2.0]octan-2-yl)-2-(2-methoxypyridin-4-yl)-7-oxo-2,7-dihydro-4H-[1,2,3]triazolo[4,5-b]pyridin-4-yl)-N-(spiro[3.3]heptan-2-yl)acetamide]
IC50 [1]: 5 to 50 nM
EC50 [2]: ≤ 500 nM

More lines, now with the values ahead:

IC50 [1]: 5 to 50 nM
EC50 [2]: 500 to 2000 nM
Compound: CCc1c(N2CCN(C(=O)c3cc(N4CCN(C)CC4)ccc3OC)[C@H]3CC[C@@H]32)c(=O)c2nn(C3=CCOCC3)nc2n1CC(=O)NC12CC(C(C)C)(C1)C2 [Compound I-165, 2-[2-(3,6-dihydro-2H-pyran-4-yl)-5-ethyl-6-[(1S,6S)-5-[2-methoxy-5-(4-methylpiperazin-1-yl)benzoyl]-2,5-diazabicyclo[4.2.0]octan-2-yl]-7-oxo-2H,4H,7H-[1,2,3]triazolo[4,5-b]pyridin-4-yl]-N-[3-(propan-2-yl)bicyclo[1.1.1]pentan-1-yl]acetamide]

IC50 [1]: 5 to 50 nM
EC50 [2]: 500 to 2000 nM
Compound: CCc1c(N2CCN(C(=O)c3[nH]ncc3OC)[C@H]3CC[C@@H]32)c(=O)c2nn(C3=CCOCC3)nc2n1CC(=O)NC12CC(C(C)C)(C1)C2 [Compound I-166, 2-[2-(3,6-dihydro-2H-pyran-4-yl)-5-ethyl-6-[(1S,6S)-5-(4-methoxy-1H-pyrazole-5-carbonyl)-2,5-diazabicyclo[4.2.0]octan-2-yl]-7-oxo-2H,4H,7H-[1,2,3]triazolo[4,5-b]pyridin-4-yl]-N-[3-(propan-2-yl)bicyclo[1.1.1]pentan-1-yl]acetamide]

IC50 [1]: 5 to 50 nM
EC50 [2]: 2000 to 5000 nM
Compound: CCc1c(N2CCN(C(=O)c3c(O)cccc3OC(F)(F)F)CC2)c(=O)c2nn(-c3ccnc(OC)c3)nc2n1CC(=O)NC12CC(C3CC3)(C1)C2 [Compound I-136, N-{3-cyclopropylbicyclo[1.1.1]pentan-1-yl}-2-(5-ethyl-6-{4-[2-hydroxy-6-(trifluoromethoxy)benzoyl]piperazin-1-yl}-2-(2-methoxypyridin-4-yl)-7-oxo-2H,4H,7H-[1,2,3]triazolo[4,5-b]pyridin-4-yl)acetamide]

IC50 [1]: 5 to 50 nM
EC50 [2]: ≤ 500 nM
Compound: CCc1c(N2CCN(C(=O)c3c(O)ccc4ncoc34)CC2)c(=O)c2nn(-c3ccnc(OC)c3)nc2n1CC(=O)NC12CC(C(F)(F)F)(C1)C2 [Compound I-150, 2-{5-ethyl-6-[4-(6-hydroxy-1,3-benzoxazole-7-carbonyl)piperazin-1-yl]-2-(2-methoxypyridin-4-yl)-7-oxo-2H,4H,7H-[1,2,3]triazolo[4,5-b]pyridin-4-yl}-N-[3-(trifluoromethyl)bicyclo[1.1.1]pentan-1-yl]acetamide]

IC50 [1]: 5 to 50 nM
EC50 [2]: ≤ 500 nM
Compound: CCc1c(N2CCN(C(=O)c3ncnc(C)c3O)CC2)c(=O)c2nn(-c3ccnc(OC)c3)nc2n1CC(=O)NC12CC(C3CCC3)(C1)C2 [Compound I-140, N-{3-cyclobutylbicyclo[1.1.1]pentan-1-yl}-2-{5-ethyl-6-[4-(5-hydroxy-6-methylpyrimidine-4-carbonyl)piperazin-1-yl]-2-(2-methoxypyridin-4-yl)-7-oxo-2H,4H,7H-[1,2,3]triazolo[4,5-b]pyridin-4-yl}acetamide]

IC50 [1]: 5 to 50 nM
EC50 [2]: ≤ 500 nM
Compound: CCc1c(N2CCN(C(=O)c3ncnc(C)c3O)[C@H]3CC[C@@H]32)c(=O)c2nn(-c3ccc(OC)nc3)nc2n1CC(=O)NC12CC(C(C)C)(C1)C2 [Compound I-156, 2-{5-ethyl-6-[(1S,6S)-5-(5-hydroxy-6-methylpyrimidine-4-carbonyl)-2,5-diazabicyclo[4.2.0]octan-2-yl]-2-(6-methoxypyridin-3-yl)-7-oxo-2H,4H,7H-[1,2,3]triazolo[4,5-b]pyridin-4-yl}-N-[3-(propan-2-yl)bicyclo[1.1.1]pentan-1-yl]acetamide]

IC50 [1]: ≤ 5 nM
EC50 [2]: ≤ 500 nM
Compound: CCc1c(N2CCN(C(=O)c3cccnc3OC)[C@H]3CC[C@@H]32)c(=O)c2nn(C3=CCOCC3)nc2n1CC(=O)Nc1ccc(C(F)F)cc1F [Compound I-211, N-[4-(difluoromethyl)-2-fluorophenyl]-2-[2-(3,6-dihydro-2H-pyran-4-yl)-5-ethyl-6-[(1S,6S)-5-(2-methoxypyridine-3-carbonyl)-2,5-diazabicyclo[4.2.0]octan-2-yl]-7-oxo-2H,4H,7H-[1,2,3]triazolo[4,5-b]pyridin-4-yl]acetamide]

IC50 [1]: 5 to 50 nM
EC50 [2]: ≤ 500 nM
Compound: CCc1c(N2CCN(C(=O)c3c(OC)nc(C(F)F)c(C)c3O)[C@H]3CC[C@@H]32)c(=O)c2nn(C3=CCOCC3)nc2n1CC(=O)NC12CC(C3CC3)(C1)C2 [Compound I-190, N-{3-cyclopropylbicyclo[1.1.1]pentan-1-yl}-2-{6-[(1S,6S)-5-[6-(difluoromethyl)-4-hydroxy-2-methoxy-5-methylpyridine-3-carbonyl]-2,5-diazabicyclo[4.2.0]octan-2-yl]-2-(3,6-dihydro-2H-pyran-4-yl)-5-ethyl-7-oxo-2H,4H,7H-[1,2,3]triazolo[4,5-b]pyridin-4-yl}acetamide]

From patent publication US20250129069A1, “TRIAZOLO WRN INHIBITORS” (Nimbus Wadjet, Inc., priority 2023, published 2025)
